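Grown in 96-well plates, cells were treated for 48 hours with each compound at five concentrations. Insufficient inhibition: endpoint recorded as highest concentration tested. At the GI50, growth is halved. TGI is the concentration that stops growth completely.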
How the values were obtained:
Test in all cases: inhibition of tumour cell growth, NCI panel, 48 h
CAKI-1 renal = tested on: CAKI-1 renal
DU-145 prostate = tested on: DU-145 prostate
EKVX NSCLC = tested on: EKVX NSCLC
HOP-92 NSCLC = tested on: HOP-92 NSCLC
HT29 colon = tested on: HT29 colon
PC-3 prostate = tested on: PC-3 prostate
SK-MEL-28 melanoma = tested on: SK-MEL-28 melanoma
SR leukemia = tested on: SR leukemia
SW-620 colon = tested on: SW-620 colon
UO-31 renal = tested on: UO-31 renal

| SMILES | TGI (CAKI-1 renal) [µM] | TGI (DU-145 prostate) [µM] | TGI (EKVX NSCLC) [µM] | TGI (HOP-92 NSCLC) [µM] | TGI (HT29 colon) [µM] | TGI (PC-3 prostate) [µM] | TGI (SK-MEL-28 melanoma) [µM] | TGI (SR leukemia) [µM] | TGI (SW-620 colon) [µM] | TGI (UO-31 renal) [µM] | GI50 (CAKI-1 renal) [µM] | GI50 (DU-145 prostate) [µM] | GI50 (EKVX NSCLC) [µM] | GI50 (HOP-92 NSCLC) [µM] | GI50 (HT29 colon) [µM] | GI50 (PC-3 prostate) [µM] | GI50 (SK-MEL-28 melanoma) [µM] | GI50 (SR leukemia) [µM] | GI50 (SW-620 colon) [µM] | GI50 (UO-31 renal) [µM] |
| --- | --- | --- | --- | --- | --- | --- | --- | --- | --- | --- | --- | --- | --- | --- | --- | --- | --- | --- | --- | --- |
| COc1ccc(CC(CO)NC(=O)OCc2ccccc2)cc1Oc1ccc(CC(CO)NC(=O)OCc2ccccc2)cc1 (stereo not given) | 44.5 | 46 | 19.1 | 46.1 | 23.6 | 27.1 | 54.9 | > 100 | > 100 | 31.4 |  |  |  |  |  |  |  |  |  |  |
| CC(=O)OC(C)c1cc2c(s1)C(=O)c1sccc1C2=O (stereo not given) | 8.23 | 0.56 | 3.7 | 16.7 | 6.18 | 14.2 | 3.64 | > 100 | > 100 | 3.28 |  |  |  |  |  |  |  |  |  |  |
| Oc1ccc(-c2nnc3sc(-c4ccc(F)cc4)nn23)cc1 | > 100 | > 100 | > 100 | > 100 | > 100 | > 100 | > 100 | > 100 | > 100 | > 100 | 48.8 | 51.2 | 70.8 | 46.1 | > 100 | > 100 | > 100 | 15.1 | > 100 | > 100 |
